Experimental data as given in article PMC6149898, “GPCR Modulation of Thieno[2,3-b]pyridine Anti-Proliferative Agents” (Molecules : A Journal of Synthetic Chemistry and Natural …, 2017).

Tests used:
CNS:SF-268 = system: CNS:SF-268; design: method as in earlier work; details: NCI-60 panel; ref [4],[5],[6],[7]; cited from earlier work
CO:COLO 205 = system: CO:COLO 205; design: method as in earlier work; details: NCI-60 panel; ref [4],[5],[6],[7]; cited from earlier work
ME:LOX IMVI = system: ME:LOX IMVI; design: method as in earlier work; details: NCI-60 panel; ref [4],[5],[6],[7]; cited from earlier work
LC:NCI-H23 = system: LC:NCI-H23; design: method as in earlier work; details: NCI-60 panel; ref [4],[5],[6],[7]; cited from earlier work
OV:OVCAR-5 = system: OV:OVCAR-5; design: method as in earlier work; details: NCI-60 panel; ref [4],[5],[6],[7]; cited from earlier work
RE:786-0 = system: RE:786-0; design: method as in earlier work; details: NCI-60 panel; ref [4],[5],[6],[7]; cited from earlier work
RE:CAKI-1 = system: RE:CAKI-1; design: method as in earlier work; details: NCI-60 panel; ref [4],[5],[6],[7]; cited from earlier work
RE:SN12C = system: RE:SN12C; design: method as in earlier work; details: NCI-60 panel; ref [4],[5],[6],[7]; cited from earlier work
ADRA2B = ADRA2B (Homo sapiens, UniProt P18089); experiment: gpcrMAX PathHunter beta-arrestin
C3AR1 = C3AR1 (Homo sapiens, UniProt Q16581); experiment: gpcrMAX PathHunter beta-arrestin
C3AR1, sequence (Q16581 whole entry): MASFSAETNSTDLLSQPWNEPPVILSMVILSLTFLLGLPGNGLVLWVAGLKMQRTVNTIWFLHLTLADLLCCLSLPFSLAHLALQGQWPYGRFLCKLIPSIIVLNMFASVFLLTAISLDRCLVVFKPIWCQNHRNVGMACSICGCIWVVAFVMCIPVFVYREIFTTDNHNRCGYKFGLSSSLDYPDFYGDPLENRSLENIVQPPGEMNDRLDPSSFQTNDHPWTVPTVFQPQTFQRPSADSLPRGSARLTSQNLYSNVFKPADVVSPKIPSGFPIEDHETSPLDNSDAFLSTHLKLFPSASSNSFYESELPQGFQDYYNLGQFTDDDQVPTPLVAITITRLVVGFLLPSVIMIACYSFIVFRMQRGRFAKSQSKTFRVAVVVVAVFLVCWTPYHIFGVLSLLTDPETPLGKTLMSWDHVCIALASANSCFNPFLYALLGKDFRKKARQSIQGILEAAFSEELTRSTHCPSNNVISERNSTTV

CCKAR = CCKAR (Homo sapiens, UniProt P32238); experiment: gpcrMAX PathHunter beta-arrestin
CCR3 = CCR3 (Homo sapiens, UniProt P51677); experiment: gpcrMAX PathHunter beta-arrestin
CCR3, sequence (P51677 whole entry): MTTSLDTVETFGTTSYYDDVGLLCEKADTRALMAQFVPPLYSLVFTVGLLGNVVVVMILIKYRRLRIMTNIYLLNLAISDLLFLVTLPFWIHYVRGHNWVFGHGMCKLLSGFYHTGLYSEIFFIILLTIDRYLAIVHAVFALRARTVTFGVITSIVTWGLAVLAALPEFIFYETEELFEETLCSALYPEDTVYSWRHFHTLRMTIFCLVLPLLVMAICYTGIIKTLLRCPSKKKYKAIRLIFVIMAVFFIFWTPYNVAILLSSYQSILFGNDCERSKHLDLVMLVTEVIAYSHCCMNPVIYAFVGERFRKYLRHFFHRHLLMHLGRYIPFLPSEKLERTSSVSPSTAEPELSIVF

CCR4 = CCR4 (Homo sapiens, UniProt P51679); experiment: gpcrMAX PathHunter beta-arrestin
CNR1 = CNR1 (Homo sapiens, UniProt P21554); experiment: gpcrMAX PathHunter beta-arrestin
CNR1, sequence (P21554 whole entry): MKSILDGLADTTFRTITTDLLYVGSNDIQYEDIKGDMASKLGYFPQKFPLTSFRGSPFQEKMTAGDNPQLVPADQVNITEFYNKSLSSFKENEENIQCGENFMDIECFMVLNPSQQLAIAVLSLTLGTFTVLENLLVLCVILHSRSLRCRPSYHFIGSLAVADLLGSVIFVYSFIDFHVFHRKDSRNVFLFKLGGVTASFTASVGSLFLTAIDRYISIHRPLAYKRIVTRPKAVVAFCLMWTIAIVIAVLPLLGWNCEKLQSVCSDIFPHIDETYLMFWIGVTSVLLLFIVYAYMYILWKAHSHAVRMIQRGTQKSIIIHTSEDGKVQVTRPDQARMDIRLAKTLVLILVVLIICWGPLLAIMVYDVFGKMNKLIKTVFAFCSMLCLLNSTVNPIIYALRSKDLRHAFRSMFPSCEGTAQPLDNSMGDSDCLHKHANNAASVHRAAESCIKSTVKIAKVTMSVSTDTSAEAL

CXCR6 = CXCR6 (Homo sapiens, UniProt O00574); experiment: gpcrMAX PathHunter beta-arrestin
CXCR6, sequence (O00574 whole entry): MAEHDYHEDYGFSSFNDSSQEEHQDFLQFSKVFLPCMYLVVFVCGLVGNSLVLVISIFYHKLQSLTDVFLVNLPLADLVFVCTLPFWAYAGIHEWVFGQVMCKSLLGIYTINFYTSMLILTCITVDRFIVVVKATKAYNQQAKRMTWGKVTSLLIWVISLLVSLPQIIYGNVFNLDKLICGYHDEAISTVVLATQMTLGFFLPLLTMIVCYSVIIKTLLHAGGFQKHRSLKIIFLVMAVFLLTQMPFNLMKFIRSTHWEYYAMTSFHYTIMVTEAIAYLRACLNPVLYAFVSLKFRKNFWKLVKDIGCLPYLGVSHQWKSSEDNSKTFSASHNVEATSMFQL

EDG7 = EDG7 (Homo sapiens, UniProt Q9UBY5); experiment: gpcrMAX PathHunter beta-arrestin
EDNRA = EDNRA (Homo sapiens, UniProt P25101); experiment: gpcrMAX PathHunter beta-arrestin
EDNRA, sequence (P25101 21-427): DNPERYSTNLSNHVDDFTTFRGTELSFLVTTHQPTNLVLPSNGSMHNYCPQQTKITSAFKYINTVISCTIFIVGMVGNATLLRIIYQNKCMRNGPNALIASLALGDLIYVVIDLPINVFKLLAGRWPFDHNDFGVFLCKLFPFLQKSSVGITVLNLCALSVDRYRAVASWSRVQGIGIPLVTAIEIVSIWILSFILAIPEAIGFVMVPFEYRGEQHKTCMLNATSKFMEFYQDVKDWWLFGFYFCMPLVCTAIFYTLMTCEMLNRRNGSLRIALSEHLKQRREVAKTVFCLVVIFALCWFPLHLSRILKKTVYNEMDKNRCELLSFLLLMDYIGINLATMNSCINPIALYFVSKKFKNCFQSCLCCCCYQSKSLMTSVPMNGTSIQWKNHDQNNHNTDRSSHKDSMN

F2RL3 = F2RL3 (Homo sapiens, UniProt Q96RI0); experiment: gpcrMAX PathHunter beta-arrestin
F2RL3, sequence (Q96RI0 18-385): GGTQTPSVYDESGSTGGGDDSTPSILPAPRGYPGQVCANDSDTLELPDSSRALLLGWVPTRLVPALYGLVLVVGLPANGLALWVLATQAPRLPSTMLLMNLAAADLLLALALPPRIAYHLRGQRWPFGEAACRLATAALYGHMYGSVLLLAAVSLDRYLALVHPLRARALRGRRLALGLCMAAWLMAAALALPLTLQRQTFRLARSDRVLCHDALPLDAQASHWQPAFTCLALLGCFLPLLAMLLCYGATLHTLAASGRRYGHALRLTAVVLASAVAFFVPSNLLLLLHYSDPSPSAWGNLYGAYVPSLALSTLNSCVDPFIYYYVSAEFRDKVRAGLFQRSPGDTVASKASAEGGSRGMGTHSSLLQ

GALR2 = GALR2 (Homo sapiens, UniProt O43603); experiment: gpcrMAX PathHunter beta-arrestin
GALR2, sequence (O43603 whole entry): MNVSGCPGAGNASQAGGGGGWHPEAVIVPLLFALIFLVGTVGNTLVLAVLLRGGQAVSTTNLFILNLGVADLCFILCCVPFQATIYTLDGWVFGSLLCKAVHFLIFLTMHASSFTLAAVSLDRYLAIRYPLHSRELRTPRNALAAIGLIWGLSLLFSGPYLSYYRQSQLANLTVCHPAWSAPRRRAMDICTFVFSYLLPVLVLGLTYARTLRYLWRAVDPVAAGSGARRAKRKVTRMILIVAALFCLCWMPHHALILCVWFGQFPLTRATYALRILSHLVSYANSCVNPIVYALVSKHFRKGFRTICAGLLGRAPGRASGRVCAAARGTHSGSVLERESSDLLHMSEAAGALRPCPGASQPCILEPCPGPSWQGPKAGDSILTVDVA

GCGR = GCGR (Homo sapiens, UniProt P47871); experiment: gpcrMAX PathHunter beta-arrestin
GCGR, sequence (P47871 26-477): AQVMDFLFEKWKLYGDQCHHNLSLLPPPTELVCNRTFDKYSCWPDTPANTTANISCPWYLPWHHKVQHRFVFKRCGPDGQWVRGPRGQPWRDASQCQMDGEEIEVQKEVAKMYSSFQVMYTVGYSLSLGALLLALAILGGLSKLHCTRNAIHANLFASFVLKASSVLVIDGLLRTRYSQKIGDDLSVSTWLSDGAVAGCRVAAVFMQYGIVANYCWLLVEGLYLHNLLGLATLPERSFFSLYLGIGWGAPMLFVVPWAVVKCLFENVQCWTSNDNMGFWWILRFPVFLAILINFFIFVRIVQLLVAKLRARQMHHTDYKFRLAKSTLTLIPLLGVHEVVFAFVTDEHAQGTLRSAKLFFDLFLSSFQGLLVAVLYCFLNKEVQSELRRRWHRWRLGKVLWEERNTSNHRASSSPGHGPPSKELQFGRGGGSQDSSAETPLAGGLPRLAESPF

GPR109B = GPR109B (Homo sapiens, UniProt P49019); experiment: gpcrMAX PathHunter beta-arrestin
GPR109B, sequence (P49019 whole entry): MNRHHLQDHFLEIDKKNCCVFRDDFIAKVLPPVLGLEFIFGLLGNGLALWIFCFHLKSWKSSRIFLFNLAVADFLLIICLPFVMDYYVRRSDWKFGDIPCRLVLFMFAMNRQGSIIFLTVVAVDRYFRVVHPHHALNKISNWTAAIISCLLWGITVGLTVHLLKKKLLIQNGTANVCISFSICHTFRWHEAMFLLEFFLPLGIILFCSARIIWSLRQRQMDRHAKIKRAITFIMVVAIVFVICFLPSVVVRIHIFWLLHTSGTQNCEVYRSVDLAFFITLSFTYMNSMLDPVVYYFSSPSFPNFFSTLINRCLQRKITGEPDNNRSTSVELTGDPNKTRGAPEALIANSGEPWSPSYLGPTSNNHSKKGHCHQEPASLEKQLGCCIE

GPR120 = GPR120 (Homo sapiens, UniProt Q5NUL3); experiment: gpcrMAX PathHunter beta-arrestin
GPR120, sequence (Q5NUL3 whole entry): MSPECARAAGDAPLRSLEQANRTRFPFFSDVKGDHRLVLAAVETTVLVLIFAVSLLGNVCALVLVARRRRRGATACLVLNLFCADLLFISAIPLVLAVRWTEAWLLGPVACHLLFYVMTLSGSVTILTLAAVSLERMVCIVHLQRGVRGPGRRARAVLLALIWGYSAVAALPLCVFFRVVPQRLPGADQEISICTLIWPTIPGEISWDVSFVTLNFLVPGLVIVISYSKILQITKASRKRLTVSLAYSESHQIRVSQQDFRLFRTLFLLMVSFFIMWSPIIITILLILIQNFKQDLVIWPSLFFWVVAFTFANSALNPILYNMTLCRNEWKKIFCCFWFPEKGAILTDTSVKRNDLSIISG

HCRTR1 = HCRTR1 (Homo sapiens, UniProt O43613); experiment: gpcrMAX PathHunter beta-arrestin
HRH4 = HRH4 (Homo sapiens, UniProt Q9H3N8); experiment: gpcrMAX PathHunter beta-arrestin
HRH4, sequence (Q9H3N8 whole entry): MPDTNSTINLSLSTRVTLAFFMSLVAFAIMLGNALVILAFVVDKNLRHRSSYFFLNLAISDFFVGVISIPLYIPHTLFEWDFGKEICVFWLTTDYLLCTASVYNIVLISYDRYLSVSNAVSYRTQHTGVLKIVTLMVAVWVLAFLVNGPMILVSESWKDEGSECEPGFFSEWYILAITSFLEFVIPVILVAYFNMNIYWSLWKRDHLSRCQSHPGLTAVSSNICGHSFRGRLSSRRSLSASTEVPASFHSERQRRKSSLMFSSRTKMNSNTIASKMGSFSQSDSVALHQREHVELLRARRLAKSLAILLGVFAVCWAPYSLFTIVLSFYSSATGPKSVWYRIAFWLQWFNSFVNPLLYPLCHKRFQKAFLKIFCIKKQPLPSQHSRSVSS

MC4R = MC4R (Homo sapiens, UniProt P32245); experiment: gpcrMAX PathHunter beta-arrestin
MCHR1 = MCHR1 (Homo sapiens, UniProt Q99705); experiment: gpcrMAX PathHunter beta-arrestin
MCHR1, sequence (Q99705 whole entry): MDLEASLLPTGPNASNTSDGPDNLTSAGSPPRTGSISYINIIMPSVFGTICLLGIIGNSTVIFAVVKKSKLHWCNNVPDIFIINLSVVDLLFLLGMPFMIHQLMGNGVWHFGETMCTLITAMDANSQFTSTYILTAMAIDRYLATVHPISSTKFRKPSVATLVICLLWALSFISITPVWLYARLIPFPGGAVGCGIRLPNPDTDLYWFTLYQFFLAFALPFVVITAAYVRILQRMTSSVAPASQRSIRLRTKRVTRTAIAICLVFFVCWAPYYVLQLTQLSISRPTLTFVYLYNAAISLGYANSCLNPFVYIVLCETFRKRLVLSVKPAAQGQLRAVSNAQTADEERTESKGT

PTGER3 = PTGER3 (Homo sapiens, UniProt P43115); experiment: gpcrMAX PathHunter beta-arrestin
SCTR = SCTR (Homo sapiens, UniProt P47872); experiment: gpcrMAX PathHunter beta-arrestin

SMILES: Cc1c(Cl)cccc1NC(=O)c1sc2nc3c(cc2c1N)C(=O)CCC3 [Compound 1]
- GI50 (CNS:SF-268): 238 nM
- GI50 (CO:COLO 205): 51.8 nM
- GI50 (ME:LOX IMVI): 80.3 nM
- GI50 (LC:NCI-H23): 169 nM
- GI50 (OV:OVCAR-5): 308 nM
- GI50 (RE:786-0): 103 nM
- GI50 (RE:CAKI-1): 46.1 nM
- GI50 (RE:SN12C): 142 nM
- inhibition at 10 µM (ADRA2B): -9%
- inhibition at 10 µM (C3AR1): -3%
- inhibition at 10 µM (CCKAR): 6%
- inhibition at 10 µM (CCR3): -47%
- inhibition at 10 µM (CCR4): 26%
- inhibition at 10 µM (CNR1): 23%
- inhibition at 10 µM (CXCR6): 5%
- inhibition at 10 µM (EDG7): -8%
- inhibition at 10 µM (EDNRA): -18%
- inhibition at 10 µM (F2RL3): 9%
- inhibition at 10 µM (GALR2): -5%
- inhibition at 10 µM (GCGR): 12%
- inhibition at 10 µM (GPR109B): 7%
- inhibition at 10 µM (GPR120): 4%
- inhibition at 10 µM (HCRTR1): 13%
- inhibition at 10 µM (HRH4): 32%
- inhibition at 10 µM (MC4R): -42%
- inhibition at 10 µM (MCHR1): -77%
- inhibition at 10 µM (PTGER3): 11%
- inhibition at 10 µM (SCTR): 13%
